According to article PMC12028158, “Synthesis and In Vitro Evaluation of the Anticancer Effect of Novel Phosphonium Vindoline Derivatives” (International Journal of Molecular Sciences, 2025):

Key:
Assay type in all cases: cell-based
[1] = test system: HCT-116; test: NCI60 five-dose screen; conditions: Homo sapiens; HCT-116, Colon Cancer, five-dose; read-out: GI50
[2] = test system: Breast Cancer panel; test: NCI60 five-dose screen, panel mean; conditions: Homo sapiens; mean over Breast Cancer panel; read-out: Mean GI50
[3] = test system: SK-MEL-5; test: NCI60 one-dose screen; conditions: Homo sapiens; SK-MEL-5, 10 μM, one-dose; read-out: Growth percent
[4] = test system: CAKI-1; test: NCI60 one-dose screen; conditions: Homo sapiens; CAKI-1, 10 μM, one-dose; read-out: Growth percent
[5] = test system: SF-539; test: NCI60 one-dose screen; conditions: Homo sapiens; SF-539, 10 μM, one-dose; read-out: Growth percent
[6] = test system: HCC-2998; test: NCI60 one-dose screen; conditions: Homo sapiens; HCC-2998, 10 μM, one-dose; read-out: Growth percent
[7] = test system: U251; test: NCI60 one-dose screen; conditions: Homo sapiens, U-251; U251, 10 μM, one-dose; read-out: Growth percent
[8] = test system: EKVX; test: NCI60 five-dose screen; conditions: Homo sapiens, Non-small Cell Lung Cancer, five-dose, read-out: GI50
[9] = test system: UACC-62; test: NCI60 one-dose screen; conditions: Homo sapiens; UACC-62, 10 μM, one-dose; read-out: Growth percent
[10] = test system: Colon Cancer panel; test: NCI60 five-dose screen, panel mean; conditions: Homo sapiens; mean over Colon Cancer panel; read-out: Mean GI50
[11] = test system: RPMI-8226; test: NCI60 five-dose screen; conditions: Homo sapiens; RPMI-8226, Leukemia, five-dose; read-out: GI50
[12] = test system: SF-268; test: NCI60 five-dose screen; conditions: Homo sapiens; SF-268, CNS Cancer, five-dose; read-out: GI50
[13] = test system: OVCAR-8; test: NCI60 one-dose screen; conditions: Homo sapiens; OVCAR-8, 10 μM, one-dose; read-out: Growth percent
[14] = test system: SN12C; test: NCI60 five-dose screen; conditions: Homo sapiens, Renal Cancer, five-dose, read-out: GI50
[15] = test system: UACC-257; test: NCI60 one-dose screen; conditions: Homo sapiens; UACC-257, 10 μM, one-dose; read-out: Growth percent
[16] = test system: HS 578T; test: NCI60 five-dose screen; conditions: Homo sapiens; HS 578T, Breast Cancer, five-dose; read-out: GI50
[17] = test system: SF-539; test: NCI60 five-dose screen; conditions: Homo sapiens; SF-539, CNS Cancer, five-dose; read-out: GI50
[18] = test system: CNS Cancer panel; test: NCI60 five-dose screen, panel mean; conditions: Homo sapiens; mean over CNS Cancer panel; read-out: Mean GI50
[19] = test system: IGROV1; test: NCI60 five-dose screen; conditions: Homo sapiens, IGROV-1; IGROV1, Ovarian Cancer, five-dose; read-out: GI50
[20] = test system: PC-3; test: NCI60 one-dose screen; conditions: Homo sapiens; PC-3, 10 μM, one-dose; read-out: Growth percent
[21] = test system: RXF 393; test: NCI60 one-dose screen; conditions: Homo sapiens; RXF 393, 10 μM, one-dose; read-out: Growth percent
[22] = test system: SNB-75; test: NCI60 one-dose screen; conditions: Homo sapiens; SNB-75, 10 μM, one-dose; read-out: Growth percent
[23] = test system: UACC-62; test: NCI60 five-dose screen; conditions: Homo sapiens; UACC-62, Melanoma, five-dose; read-out: GI50
[24] = test system: MALME-3M; test: NCI60 five-dose screen; conditions: Homo sapiens; MALME-3M, Melanoma, five-dose; read-out: GI50
[25] = test system: CCRF-CEM; test: NCI60 one-dose screen; conditions: Homo sapiens, 10 μM, one-dose, read-out: Growth percent
[26] = test system: HCT-15; test: NCI60 five-dose screen; conditions: Homo sapiens; HCT-15, Colon Cancer, five-dose; read-out: GI50
[27] = test system: NCI-H226; test: NCI60 five-dose screen; conditions: Homo sapiens; NCI-H226, Non-small Cell Lung Cancer, five-dose; read-out: GI50
[28] = test system: NCI-H322M; test: NCI60 five-dose screen; conditions: Homo sapiens, Non-small Cell Lung Cancer, five-dose, read-out: GI50
[29] = test system: COLO 205; test: NCI60 five-dose screen; conditions: Homo sapiens, COLO 205, COLO 205, Colon Cancer, five-dose; read-out: GI50
[30] = test system: K-562; test: NCI60 five-dose screen; conditions: Homo sapiens, K562; K-562, Leukemia, five-dose; read-out: GI50
[31] = test system: MCF7; test: NCI60 five-dose screen; conditions: Homo sapiens, MCF7, MCF7, Breast Cancer, five-dose; read-out: GI50
[32] = test system: SN12C; test: NCI60 one-dose screen; conditions: Homo sapiens, 10 μM, one-dose, read-out: Growth percent
[33] = test system: MCF7; test: NCI60 one-dose screen; conditions: Homo sapiens; MCF7, 10 μM, one-dose; read-out: Growth percent
[34] = test system: BT-549; test: NCI60 five-dose screen; conditions: Homo sapiens; BT-549, Breast Cancer, five-dose; read-out: GI50
[35] = test system: OVCAR-8; test: NCI60 five-dose screen; conditions: Homo sapiens; OVCAR-8, Ovarian Cancer, five-dose; read-out: GI50
[36] = test system: Prostate Cancer panel; test: NCI60 five-dose screen, panel mean; conditions: Homo sapiens; mean over Prostate Cancer panel; read-out: Mean GI50
[37] = test system: NCI/ADR-RES; test: NCI60 one-dose screen; conditions: Homo sapiens, 10 μM, one-dose, read-out: Growth percent
[38] = test system: EKVX; test: NCI60 one-dose screen; conditions: Homo sapiens, 10 μM, one-dose, read-out: Growth percent
[39] = test system: OVCAR-3; test: NCI60 one-dose screen; conditions: Homo sapiens; OVCAR-3, 10 μM, one-dose; read-out: Growth percent
[40] = test system: Ovarian Cancer panel; test: NCI60 five-dose screen, panel mean; conditions: Homo sapiens; mean over Ovarian Cancer panel; read-out: Mean GI50
[41] = test system: NCI/ADR-RES; test: NCI60 five-dose screen; conditions: Homo sapiens, Ovarian Cancer, five-dose, read-out: GI50
[42] = test system: Leukemia panel; test: NCI60 five-dose screen, panel mean; conditions: Homo sapiens; mean over Leukemia panel; read-out: Mean GI50
[43] = test system: SNB-19; test: NCI60 five-dose screen; conditions: Homo sapiens, SNB-19, SNB-19, CNS Cancer, five-dose; read-out: GI50
[44] = test system: CCRF-CEM; test: NCI60 five-dose screen; conditions: Homo sapiens, Leukemia, five-dose, read-out: GI50
[45] = test system: TK-10; test: NCI60 five-dose screen; conditions: Homo sapiens; TK-10, Renal Cancer, five-dose; read-out: GI50
[46] = test system: NCI-H460; test: NCI60 one-dose screen; conditions: Homo sapiens; NCI-H460, 10 μM, one-dose; read-out: Growth percent
[47] = test system: IGROV1; test: NCI60 one-dose screen; conditions: Homo sapiens, IGROV-1; IGROV1, 10 μM, one-dose; read-out: Growth percent
[48] = test system: BT-549; test: NCI60 one-dose screen; conditions: Homo sapiens; BT-549, 10 μM, one-dose; read-out: Growth percent

`CC[C@]12C=CCN3CC[C@@]4(c5ccc(OC)cc5N(C)[C@H]4[C@@](O)(C(=O)OC)[C@@H]1OC(=O)CCC[P+](c1ccccc1)(c1ccccc1)c1ccccc1)[C@@H]32` [compound 3, reference compound] gave a GI50 [1] of 965 nM, a GI50 [2] of 450 nM and an activity at 10 µM [3] of -91.5%. For the same molecule, the activity at 10 µM [4] was 52.2%, the activity at 10 µM [5] was 16.2% and the activity at 10 µM [6] was -22.5%. It also gave an activity at 10 µM [7] of 4.03%, a GI50 [8] of 470 nM and an activity at 10 µM [9] of -59.3%. For the same molecule, the GI50 [10] was 1690 nM, the GI50 [11] was 219 nM and the GI50 [12] was 975 nM. The activity at 10 µM [13] was 3.13%, the GI50 [14] was 590 nM and the activity at 10 µM [15] was -27.3%. The GI50 [16] was 1260 nM, the GI50 [17] was 662 nM and the GI50 [18] was 760 nM. For the same molecule, the GI50 [19] was 237 nM, the activity at 10 µM [20] was 2.13% and the activity at 10 µM [21] was 28.9%. For the same molecule, the activity at 10 µM [22] was -4.39%, the GI50 [23] was 222 nM and the GI50 [24] was 283 nM. For the same molecule, the activity at 10 µM [25] was 11.2%, the GI50 [26] was 8500 nM and the GI50 [27] was 2040 nM. The GI50 [28] was 2330 nM, the GI50 [29] was 161 nM and the GI50 [30] was 360 nM. It also gave a GI50 [31] of 306 nM, an activity at 10 µM [32] of 2.73% and an activity at 10 µM [33] of -3.34%. The GI50 [34] was 380 nM, the GI50 [35] was 1270 nM and the GI50 [36] was 640 nM. It also gave an activity at 10 µM [37] of 100%, an activity at 10 µM [38] of 10.3% and an activity at 10 µM [39] of -2.49%. For the same molecule, the GI50 [40] was 7780 nM, the GI50 [41] was greater than 50000 nM and the GI50 [42] was 360 nM. The GI50 [43] was 334 nM, the GI50 [44] was 487 nM and the GI50 [45] was 1480 nM. The activity at 10 µM [46] was 6.11%, the activity at 10 µM [47] was -0.06% and the activity at 10 µM [48] was 11%.
